Results from patent US10363239B2, “Method for inhibiting growth of cancer cells” (Pain Therapeutics, Inc., priority 2013, dated 2019).

Legend:
Assay type in all cases: cell-based, human
MiaPaCa2 cells = assay: Blocking of compound effects with FLNA decoy pentapeptide VAKGL or control peptide VAAGL; details: 4 days
Description: FIGS. 32A-32D illustrate Western blots of pS^2152FLNA, Ras-GAP, PP2A-Aα/β, PTEN and FLNA in FIG. 32A and Ki67, PCNA and actin in FIG. 32C after four days of incubation (contact) of MiaPaCa2 cells in the presence of medium alone, or medium containing 1 nM Compound C0105 with and without the presence of 10 μM peptide VAAGL (SEQ ID NO: 2) or peptide VAKGL (SEQ ID NO: 1). Densitometric quantification of the Western blot results are shown in the graphs of FIG. 32B for the amounts of pS^2152FLNA, Ras-GAP, PP2A-Aα/β and PTEN in anti-FLNA immunoprecipitates and the amounts of Ki76 and PCNA (normalized by actin) in FIG. 32D. N=4, *p<0.01.
To confirm that Compound C0105 effects are mediated by binding to FLNA pentapeptide VAKGL (SEQ ID NO: 1), cancer cells were incubated with vehicle or 1 nM Compound C0105 together with 10 μM of decoy pentapeptide (VAKGL) or control peptide, VAAGL (K-A decoy peptide; SEQ ID NO: 2) for 4 days as described previously.
Cells were harvested by centrifugation and solubilized, and lysates were immunoprecipitated with anti-FLNA. Levels of pS^2152FLNA, PTEN, PP2A-Aα, PP2A-Aβ and Ras-GAP in the anti-FLNA immunoprecipitates were determined by Western blotting.
A separate series of studies was undertaken to determine whether Compound C0105's reduction in proliferation markers is also mediated by Compound C0105 binding to the pentapeptide region of FLNA. As above, cancer cells were incubated for 4 days with vehicle or 1 nM Compound C0105 together with 10 μM of decoy pentapeptide (VAKGL; SEQ ID NO: 1) or control peptide, VAAGL (SEQ ID NO: 2).
Cells were harvested by centrifugation and the resultant cell pellets were washed and sonicated in ice-cold immunoprecipitation buffer. Protein concentrations were measured by the Bradford method. […] Fifty μl of solubilized cell lysates were separated using SDS-PAGE, the protein bands electrophoretically transferred to nitrocellulose membranes and the level of cell proliferation was determined by Western blotting using the levels of Ki67 and PCNA as described previously.

[1] = test system: non-small cell lung cancer cell lines; assay: Glucose utilization; details: data not shown
Description: (§1) To determine the effect of Compound C0105 on glucose utilization, the cancer and primary normal cells were plated extremely thinly (10%). Once cells attached, Compound C0105 was added at 0.1, 0.5, 1 or 5 nM in the medium twice daily (6 hours apart) for 4 days. The cells were serum-deprived (glucose deprived) for 2 hours. Cells were then rinsed with 1 ml PBS and glucose uptake was assessed by contacting the cells with [^3H]glucose (0.01 uCi/l ml) in Kreb's Ringer for 2 hours. Cells were then rinsed with 1 ml PBS 3 times, scraped off and their glucose content counted by liquid scintillation spectrophotometry.
. Primary lung fibroblast cells were used as control, non-cancerous cells to illustrate the difference in effects observed (FIG. 1C, FIGS. 1H-1I).

primary lung fibroblasts = assay: [3H]glucose uptake; details: C0105 0.1-5 nM, other compounds 1 or 5 nM; 4 days
Description: as §1, with “FIG. 1A through FIG. 1M illustrate the effects of various FLNA-binding compounds on glucose uptake in glioblastoma, melanoma, breast and pancreatic cancer cell lines, along with appropriate non-cancerous primary cell controls. Cells were grown in the absence or presence of 0.1-5 nM indicated compounds for 4 days. Following brief washes with PBS, cells were serum-deprived for 4 hours and then incubated in oxygenated Kreb's Ringer containing 0.1 μCi [^3H]glucose for 2 hours under constant oxygenation. The reaction was terminated by removal of the incubation medium, and cells were washed and scraped off to determine the amounts of [^3H]glucose in cells by scintillation spectrometry. […] N=5-6. […] . […] . To” for “To”
(§2) Both glioblastoma and melanoma cells were plated extremely thinly. Once cells attached, Compound C0105 was added at 0.1, 0.5, 1 and 5 nM, whereas the other compounds were present at 1 and 5 nM in the medium twice daily (6 hours apart) for 4 days. The cells were serum-deprived (glucose deprived) for 2 hours. Cells were then rinsed with 1 ml PBS and glucose uptake was assessed by contacting the cells with [3H]glucose (0.01 uCi/l ml) of Kreb's Ringer for 2 hours. Cells were then rinsed with 1 ml PBS 3 times, scraped off and their glucose contents counted by liquid scintillation spectrophotometry.

[2] = test system: glioblastoma cells (U-87 MG); assay: [3H]glucose uptake
Description: as §1, with “FIG. 1A through FIG. 1M illustrate the effects of various FLNA-binding compounds on glucose uptake in glioblastoma, melanoma, breast and pancreatic cancer cell lines, along with appropriate non-cancerous primary cell controls. Cells were grown in the absence or presence of 0.1-5 nM indicated compounds for 4 days. Following brief washes with PBS, cells were serum-deprived for 4 hours and then incubated in oxygenated Kreb's Ringer containing 0.1 μCi [^3H]glucose for 2 hours under constant oxygenation. The reaction was terminated by removal of the incubation medium, and cells were washed and scraped off to determine the amounts of [^3H]glucose in cells by scintillation spectrometry. […] N=5-6. […] . […] . To” for “To”
as §2

melanoma cells (A2058) = assay: [3H]glucose uptake
Description: as §1, with “FIG. 1A through FIG. 1M illustrate the effects of various FLNA-binding compounds on glucose uptake in glioblastoma, melanoma, breast and pancreatic cancer cell lines, along with appropriate non-cancerous primary cell controls. Cells were grown in the absence or presence of 0.1-5 nM indicated compounds for 4 days. Following brief washes with PBS, cells were serum-deprived for 4 hours and then incubated in oxygenated Kreb's Ringer containing 0.1 μCi [^3H]glucose for 2 hours under constant oxygenation. The reaction was terminated by removal of the incubation medium, and cells were washed and scraped off to determine the amounts of [^3H]glucose in cells by scintillation spectrometry. […] N=5-6. […] . […] . To” for “To”
as §2

[3] = C0105 0.1-5 nM, other compounds 1 and 5 nM, twice daily for 4 days

Structure (SMILES): CN1CCC2(CC1)NCC(=O)N2Cc1ccccc1 [Compound C0105]
- Effect on pS2152FLNA and FLNA associations when co-incubated with control peptide VAAGL (MiaPaCa2 cells; 1 nM compound + 10 μM VAAGL (SEQ ID NO: 2)): did not disrupt Compound C0105 effects
- Effect on pS2152FLNA and FLNA associations when co-incubated with VAKGL decoy pentapeptide (MiaPaCa2 cells; 1 nM compound + 10 μM VAKGL (SEQ ID NO: 1)): lost its effect on pS^2152FLNA hyperphosphorylation and on FLNA associations with ras-GAP, PTEN and PP2A
- Reduction in cell proliferation (Ki67, PCNA) when co-incubated with VAKGL decoy pentapeptide (MiaPaCa2 cells; 1 nM compound + 10 μM VAKGL): disrupted Compound C0105's reduction in cell proliferation
- Glucose utilization [1]: decreased the elevated glucose utilization
- Glucose uptake / glucose content (primary lung fibroblasts): not changed
- Reduction of glucose uptake ([2]; 0.1 nM, 4 days): 25%
- Inhibition of glucose uptake, maximal effect ([2]; 1 nM, 4 days): 50%
- EC50 ([2]; 4 days, read-out: EC50, inhibition of glucose uptake): ~100 pM
- Glucose utilization [2, 3]: decreased the elevated glucose utilization
- Inhibition of glucose uptake (melanoma cells (A2058); 0.1-5 nM, not dose-dependent): about 25%
- Glucose utilization (melanoma cells (A2058); [3]): decreased the elevated glucose utilization
